# Experiment: Gel formation test of precursor formulations in excess aqueous medium
# Type: physicochemical
# Conditions: self-organizing lipid (SOL) criterion
# Experimental: The precursor formulations of Nos. 1 to 75 thus prepared were subjected to a gel formation test. An aliquot (about 100 to 300 mg) of each precursor formulation was added to an excess aqueous medium (about 0.5 to 2 mL of injectable water for Nos. 1 to 61 and 64 to 75 or phosphate buffered saline (PBS) of pH 7.4 for Nos. 62 and 63) in a vial, and mixed at room temperature (25° C.) with a spatula or a vortex mixer. As a result, all the precursor formulations of Nos. 1 to 75 produced gel compositions having colorless transparent to white turbid appearance separated in the excess aqueous medium. […]
row,gel formation of the lipid used alone by mixing with water,Compound
1,do not form a gel,"CC(=CCCC(=O)OCC(C)O)CCCC(C)CCCC(C)C (stereo not shown) [C17 propylene glycol ester, mono-O-(5,9,13-trimethyltetradec-4-enoyl)propylene glycol]"
2,do not form a gel,"C/C(=C\C(=O)OCC(C)O)CCCC(C)CCCC(C)CCCC(C)C (stereo not shown) [C20 propylene glycol ester, mono-O-(3,7,11,15-tetramethylhexadec-2-enoyl)propylene glycol]"
3,do not form a gel,"CC(=CCC(=O)OCC(C)O)CCCC(C)CCCC(C)CCCC(C)C (stereo not shown) [C21 propylene glycol ester, mono-O-(4,8,12,16-tetramethylheptadec-3-enoyl)propylene glycol]"
4,do not form a gel,"CC(=CCCC(=O)OCCC(C)O)CCCC(C)CCCC(C)CCCC(C)C (stereo not shown) [C22 butylene glycol ester, mono-O-(5,9,13,17-tetramethyloctadec-4-enoyl)1,3-butylene glycol]"
5,do not form a gel,"CC(=CCCC(=O)OCCO)CCCC(C)CCCC(C)CCCC(C)C (stereo not shown) [C22 ethylene glycol ester, mono-O-(5,9,13,17-tetramethyloctadec-4-enoyl)ethylene glycol]"
6,do not form a gel,"CC(=CCCC(=O)OCCC(C)(C)O)CCCC(C)CCCC(C)CCCC(C)C (stereo not shown) [C22 isoprene glycol ester, mono-O-(5,9,13,17-tetramethyloctadec-4-enoyl)3-methyl-1,3-butanediol]"
7,do not form a gel,"CC(C)CCCC(C)CCCC(C)CCCC(C)CC(=O)OCC(C)O (stereo not shown) [saturated C20 propylene glycol ester, mono-O-(3,7,11,15-tetramethylhexadecanoyl)propylene glycol]"
8,do not form a gel,"CC(C)CCCC(C)CCCC(C)CCCC(C)CCCC(=O)OCC(C)O (stereo not shown) [saturated C22 propylene glycol ester, mono-O-(5,9,13,17-tetramethyloctadecanoyl)propylene glycol]"

# Experiment: Viscosity of the amphipathic compound
# Type: physicochemical
# Conditions: not given
# Experimental: Specifically, the amphipathic compound represented by the general formula (I) has a viscosity of preferably 15.0 Pa·s or less, more preferably 11.0 Pa·s or less, further preferably 6.0 Pa·s or less, by itself, as measured at 25° C. This viscosity can be measured using, for example, a viscosity and viscoelasticity measuring apparatus (Gemini II, Malvern Instruments Ltd.) at a temperature of 25° C.
row,Viscosity,Compound
1,1.7 Pa·s,"CC(=CCCC(=O)OCC(CO)(CO)CO)CCCC(C)CCCC(C)CCCC(C)C (stereo not shown) [C22 pentaerythritol ester, mono-O-(5,9,13,17-tetramethyloctadec-4-enoyl)pentaerythritol]"

# Same assay, conditions: at shear velocity of 92 1/s
row,Viscosity,Compound
1,0.37 Pa·s,"CC(C)=CCC/C(C)=C/CC/C(C)=C/CCC(C)=CCCC(=O)OCC(O)CO (stereo not shown) [glyceryl geranylgeranylacetate, mono-O-(5,9,13,17-tetramethyloctadeca-4,8,12,16-tetraenoyl)glycerol]"
